One molecule from US8969298B2, “Liquid preparation of physiologically active peptide” (Daiichi Sankyo Co., Ltd., priority 2004, dated 2015) can be followed below.

The nature of data set [1]: Pharmacokinetics of human ghrelin preparations intravenously, subcutaneously or intramuscularly administered to rats (plasma ghrelin by RIA). The data set is classed as in vivo. Particulars: s.c. The method, then: 7-week old, male SD rats (Charles River Laboratories Japan Inc.) were used. A group of three rats was used for the tests. For intravenous administration, these animals each inserted a polyethylene tube (PE-50, Clay Adams Co., Ltd.) in the femoral artery were used. Preparation No. 2 was administered through the tail vain at a dose of 0.5 mL/kg by using a syringe and a 26 G needle (each available from Terumo Co., Ltd.). Blood samples were collected from the polyethylene tube in the femoral artery before administration and 1, 3, 5, 10, 20, 30, 60, and 90 minutes after administration.
Similarly, these animals inserted a polyethylene tube in the femoral artery were used for subcutaneous administration of Preparation No. 3 in the dorsal skin at a dose of 1 mL/kg using a syringe and a 26 G needle. Blood samples were collected from the polyethylene tube in the femoral artery before administration and 5, 10, 20, and 30 minutes after administration.
To each sample, one-hundredth as much of an EDTA.2Na.2H2O solution and one-fiftieth as much of an AEBSF solution were added immediately after collection of the sample. […]
The plasma samples were then analyzed for the ghrelin levels by radioimmunoassay (RIA) using an anti-ghrelin antibody. […] The supernatant was separated and analyzed for radioactivity by a γ-counter (Packard Instruments Co., Ltd.).
The results shown in FIG. 1 were used to determine the following pharmacokinetic parameters for each injection route: the maximum plasma ghrelin concentration (Cmax) and the time it took before the maximum plasma concentration was reached (T). […] Using the trapezoidal method, the area under the concentration curve (AUC) was also calculated for each injection route. […]
As with the examples of subcutaneous administration, these rats, inserted a polyethylene tube in the femoral artery, were intramuscularly administered Preparations No. 3 and No. 13 in the femoral muscle at a dose of 1 mL/kg, using a syringe and a 26 G needle. The blood samples were collected in the same manner as in Comparative Example 2 and the plasma ghrelin levels were measured by RIA method.

Data set [2] can be described thus: Pharmacokinetics of ghrelin preparations intravenously or subcutaneously administered to cynomolgus monkeys (plasma ghrelin by ELISA). The settings on record: cynomolgus monkey, in vivo, sc, read-out: BA of subcutaneously injected ghrelin. The method, then:
Preparations No. 5 and No. 33 were subcutaneously administered to separate groups of cynomolgus monkeys and the plasma ghrelin levels were measured. Furthermore, Preparation No. 1 was intravenously administered to another group of cynomolgus monkeys. The plasma ghrelin levels were measured.
Each group consisted of three male monkeys (imported from China) aged 4 to 6 years. Preparations No. 5 and No. 33 were subcutaneously injected in the dorsal skin at a dose of 0.2 mL/body using a syringe and a 26 G needle (each available from Terumo Co., Ltd.).
Using a syringe and a 26 G needle (each available from Terumo Co., Ltd.), Preparation No. 1 was intravenously injected in the forearm vena cephalica at a dose of 2 mL/kg.
In each case, blood samples were collected from the forearm vena cephalica before administration and 5, 10, 15, 30, 40, 60, 90, and 120 minutes after administration. […]
The plasma samples were then analyzed for the ghrelin levels by Enzyme-Linked Immunosolvent Assay (ELISA) using Active Ghrelin ELISA Kit (Cat. No. MM-401, Mitsubishi Kagaku latron Inc.). […]
The results shown in FIG. 7 were used to determine Cmax and Tmax for each liquid preparation. Using the trapezoidal method, the AUC was also calculated for each preparation. […]
On the technique in general: In an ELISA, binding on a coated surface is turned into a signal by an enzyme label.

Molecules are shown by their SMILES.

Regarding `CCCCCCCC(=O)OC[C@H](NC(=O)[C@H](CO)NC(=O)CN)C(=O)N[C@@H](Cc1ccccc1)C(=O)N[C@@H](CC(C)C)C(=O)N[C@@H](CO)C(=O)N1CCC[C@H]1C(=O)N[C@@H](CCC(=O)O)C(=O)N[C@@H](Cc1cnc[nH]1)C(=O)N[C@@H](CCC(N)=O)C(=O)N[C@@H](CCCNC(=N)N)C(=O)N[C@H](C(=O)N[C@@H](CCC(N)=O)C(=O)N[C@@H](CCC(N)=O)C(=O)N[C@@H](CCCNC(=N)N)C(=O)N[C@@H](CCCCN)C(=O)N[C@@H](CCC(=O)O)C(=O)N[C@@H](CO)C(=O)N[C@@H](CCCCN)C(=O)N[C@@H](CCCCN)C(=O)N1CCC[C@H]1C(=O)N1CCC[C@H]1C(=O)N[C@@H](C)C(=O)N[C@@H](CCCCN)C(=O)N[C@@H](CC(C)C)C(=O)N[C@@H](CCC(N)=O)C(=O)N1CCC[C@H]1C(=O)N[C@@H](CCCNC(=N)N)C(=O)O)C(C)C` [ghrelin], the “BA of subcutaneously injected ghrelin” value in data set [1] is “at most 5%”. For the same molecule, the BA of ghrelin in data set [1] (mixed with sodium acetate buffer (pH 4.0)) was 35.3%; in data set [1] (mixed with urea as a solubilizing agent), 3.4%. In data set [2], the bioavailability is ≤ 3%.
